US20040191842A1, “Chemopreventive and therapeutic aspects of polyphenolic compositions and assays” (Medical College of Georgia Research Institute, Inc., priority 2002, published 2004)
“Also recorded” adds a separate entry of the source.

Key:
NHEK [1] = test: MTT assay (SDH activity), NHEK; assay type: cell-based, human
Excerpt: (§1) Succinate dehydrogenase activity assay (MTT assay).

OSC-2 and OSC-4 cells [2] = test: MTT assay, OSC-2 and OSC-4 cells pretreated with catalase, 3-AT or NAC; assay type: cell-based, human
Excerpt: as §1

p57 (KIP2) = assay type: cell-based, human; conditions: for p57 expression, carcinogen alone: 0.12 μM BaP or 10 μM NNK alone
Procedure: Cell treatments. For 24 hours treatments, exponentially growing cells with 40% confluency (to minimize differentiation and spontaneous apoptosis) were either maintained in 50 μM EGCG (2.29 mg/100 ml) or 0.2 mg/ml of GTPPs in tissue culture flasks (25 cm^2). Control flasks contained cells without any treatment. To test whether BaP or NNK interfere with the induction of p57, the human keratinocytes were treated with 0.12 μM BaP, or 10 μM NNK, either alone or in combination with 50 μM EGCG. To examine the time course of p57 induction, cells were treated with 50 μM EGCG and harvested for Western analysis at 30 minutes, 2 hours, 6 hours, and 24 hours. The human keratinocytes were treated when the cell density reached 85-90% confluency (to mimic the epithelium).
In a parallel series of experiments, treatment with EGCG was performed with 30 micrograms per milliliter (μg/ml) cycloheximide added to the keratinocyte media 30 minutes prior to the addition of EGCG. The dose-response experiments were performed using EGCG concentrations at 30, 50 100, and 200 μM in the culture media for 24 hours.
Western blot analysis. Cells from different treatment groups were lysed in RIPA buffer (1% NP-40, 1% sodium deoxycholate, 0.1% SDS, 0.15 M NaCl, 0.01 M sodium phosphate, pH 7.2, and 1% Trasylol) containing proteinase inhibitors (1 mM PMSF, 1 μg/ml each of aprotinin, leupeptin, and pepstatin). The concentration of protein in each sample was determined using the BioRad DC Protein Assay and spectrophotometry. Fifty micrograms (μg) of protein from each sample and a BioRad molecular weight standard marker were run on a 10% SDS-PAGE, followed by transfer to nitrocellulose membranes. Nonspecific binding to membranes was blocked with 10% nonfat milk. Specific primary polyclonal (rabbit) antibody against p57 and a horse radish peroxidase-conjugated goat anti-rabbit secondary antibody were used in conjunction with the ECL Chemiluminescence Kit and membranes were exposed to radiographic films for detection.

OSC-2 cells [3] = test: Intracellular ROS levels (DFDA assay), OSC-2 cells; assay type: cell-based, human; conditions: 5 mM diamide or relatively high H2O2, 60 minutes
Procedure: (§2) Measurement of intracellular ROS levels. The ROS assay measures the accumulation of intracellular ROS levels. The non-fluorescent dye DFDA passively diffuses into cells, where the acetates are cleaved by intracellular esterases. […] Thus, values of the fluorescence in the cell cultures are constantly rising in this assay. Cells (1.5×10^4 cells/well) were incubated with Hallam's physiological saline (HPS) containing DFDA (10 μM) in a 96-well microplate for 30 minutes at 37° C. After the incubation, cells were washed three times with HPS and then incubated with HPS containing EGCG (15-200 μM) or diamide (5 mM) for the indicated time periods. The intracellular ROS levels were measured by using a fluorescence plate reader (BIO-TEK FL600, Bio-Tek Instruments, Inc., Winooski, Vt.), at an excitation wavelength of 485 nm and an emission wavelength of 530 nm.
as §2, with “assay (DFDA assay)” for “assay”, “dye dichlorofluorescein diacetate (DFDA)” for “dye DFDA”, “this assay due to the accumulation of ROS.” for “this assay.”, “EGCG (50-200” for “EGCG (15-200”, “indicated times.” for “indicated time periods.”

OSC-4 cells = test: MTT assay (SDH activity), OSC-4 cells; assay type: cell-based, human
Procedure: MTT [3-(4,5-dimethylthiazol-2-yl)-2,5-diphenyl tetrazolium bromide] assay. This method directly detects the activity of mitochondrial succinate dehydrogenase (SDH). Changes in SDH activity is a measurement of cell viability when stress is introduced in cell culture through chemical or physical means. Cells (1.5×10^4 cells/well) were seeded in a 96-well microplate and treated with the indicated doses of EGCG for 24 hours. After the treatment, the cells in each well were washed with 200 μl of phosphate-buffered saline (PBS), incubated with 100 μl of 2% MTT in a solution of 0.05 M Tris, 0.5 mM MgCl2, 2.5 mM CoCl2, and 0.25 M disodiumn succinate as substrate (Sigma) at 37° C. for 30 minutes. Cells were fixed in situ by the addition of 100 μl of 4% formalin in 0.2 M Tris (pH 7.7), and after a 5 minute incubation at room temperature liquid was removed and the wells were allowed to dry. Each well was rinsed with 200 μl water and cells were solubilized by the addition of 100 μl of 6.35% 0.1 N NaOH in DMSO. The colored formazan product was measured by a Thermo MAX micro plate reader (Molecular Devices Corp., Sunnyvale, Calif.) at a wavelength of 562 nm. Experiments were repeated three times with triplicate samples for each experiment.

OSC-2 cells [4] = test: MTT assay (mitochondrial SDH activity), OSC2 (OSC-2) cells
Procedure: This method detects the activity of mitochondrial succinate dehydrogenase (SDH). In a 96-well plate, 1.5×10^4 cells were seeded in each well. After variety of treatments, 100 μl of 2% MTT was added to each well and the plate was incubated at 37° C. for 30 minutes. 100 μl of 0.2 M Tris (pH 7.7) with 4% formalin was added to each well. After incubation at room temperature for 5 minutes, liquid was removed and the wells were allowed to dry. Each well was rinsed with 200 μl water followed by addition of 100 μl DMSO (6.35% 0.1 N NaOH in DMSO) to each well. The coloration was measured by a Thermo MAX microplate reader (Molecular Devices Corp. Sunnyvale, Calif. using wavelengths of 562 nm. Experiments were repeated three times with triplicate samples for each experiment.
This method directly detects the activity of mitochondrial succinate dehydrogenase (SDH). Changes in SDH activity is a measurement of cell viability when stress is introduced in cell culture through chemical or physical means. Cells (1.5×10^4 cells/well) were seeded in a 96-well microplate and treated with the indicated doses of EGCG for 24 hours. After the treatment, the cells in each well were washed with 200 μl of phosphate-buffered saline (PBS), incubated with 100 μl of 2% MTT in a solution of 0.05 M Tris, 0.5 mM MgCl2, 2.5 mM CoCl2, and 0.25 M disodiumn succinate as substrate (Sigma) at 37° C. for 30 minutes. Cells were fixed in situ by the addition of 100 μl of 4% formalin in 0.2 M Tris (pH 7.7), and after a 5 minute incubation at room temperature liquid was removed and the wells were allowed to dry. Each well was rinsed with 200 μl water and cells were solubilized by the addition of 100 μl of 6.35% 0.1 N NaOH in DMSO. The colored formazan product was measured by a Thermo MAX micro plate reader (Molecular Devices Corp., Sunnyvale, Calif.) at a wavelength of 562 nm. […]
This method directly detects the activity of mitochondrial succinate dehydrogenase (SDH). […] Solubilized colored formazan product was measured using a Thermo MAX microplate reader (Molecular Devices Corp., Sunnyvale, Calif.) at a wavelength of 562 nm.

NHEK [5] = test: Intracellular ROS levels (DFDA assay), NHEK; assay type: cell-based, human; conditions: 5 mM diamide, 1-minute incubation
Procedure: Measurement of intracellular ROS levels. The ROS assay measures the accumulation of intracellular ROS levels. The non-fluorescent dye DFDA passively diffuses into cells, where the acetates are cleaved by intracellular esterases. […] Thus, values of the fluorescence in the cell cultures are constantly rising in this assay. […] The intracellular ROS levels were measured by using a fluorescence plate reader (BIO-TEK FL600, Bio-Tek Instruments, Inc., Winooski, Vt.), at an excitation wavelength of 485 nm and an emission wavelength of 530 nm.

OSC-2 and OSC-4 cells [6] = test: BrdU incorporation, OSC-2 and OSC-4 cells with exogenous catalase; assay type: cell-based, human; conditions: 200 U/ml catalase, 200 μM EGCG, 24 h
Procedure: DNA synthesis assay. DNA synthesis was analyzed by a BrdU cell proliferation assay kit (Oncogene Research Products, Boston, Mass.). […] After the treatment, cells were labeled with BrdU for 2 hours at 37° C. and reacted with anti-BrdU antibody. Unbound antibody in each well was removed by rinsing, and horseradish peroxidase-conjugated goat anti-mouse IgG antibody was added to each well. The color reaction to visualize the secondary antibody was carried out according to the protocol provided by the manufacturer.

caspase-3 = test: Caspase-3 activity, OSC-2 and OSC-4 cells pretreated with catalase; assay type: cell-based, human; conditions: 200 U/ml catalase, 24 hour
Procedure: Caspase-3 activity assay. The caspase-3 apoptosis detection kit (Santa Cruz Biotechnology, Inc., Santa Cruz, Calif.) was used to measure caspase-3 activity. Cells (10^5 cells/well) were plated in triplicate in a 24-well tissue culture plate. […] To each well, 100 μl of 2×reaction buffer was added with 10 mM dithiothreitol. Finally, 5 μl of DEVD-AFC substrate was added to each well containing cell lysates. The reaction mixtures were incubated for 1 hour at 37° C., and caspase-3 activity in each well was measured using a fluorescence microplate reader ([…]luor Plus, Tecan US, Research Triangle Park, N.C.) at a wavelength of 405 nm for excitation and 505 nm for emission.

For Nc1nc[nH]n1 [3-AT, 3-amino-1,2,4-triazole], the “susceptibility of NHEK to EGCG cytotoxicity after 3-AT” value (NHEK [1]; pretreatment with 3-AT) was “did not become susceptible to EGCG cytotoxicity” and the “effect of 3-AT on EGCG-induced decline of SDH activity” value (OSC-2 and OSC-4 cells [2]; 30 μM 3-AT 2 hours, 200 μM EGCG) was “had no significant effect on the decline of mitochondrial SDH activity”.
With c1ccc2c(c1)cc1ccc3cccc4ccc2c1c34 [BaP, reference compound] the “p57 expression, carcinogen alone” value (p57 (KIP2)) was “did not alter p57 expression”.
OO [H2O2, hydrogen peroxide] was tested, and the SDH activity remained (NHEK [1]; 1 mM H2O2, 24 hours) was 75%, the “reduction of SDH activity” value (NHEK [1]; 1 mM H2O2, 24 hours) was 25% and the “ROS accumulated in OSC-2 cells relative to OSC-4 cells” value (OSC-2 cells [3]) was “approximately two”. For the same molecule, the SDH activity (OSC-4 cells; 100 μM H2O2) was “had no significant effect on SDH activity”, the “H2O2 concentration needed to cause […]% reduction of SDH activity” value (OSC-4 cells; 24 hours) was 250 µM and the SDH activity (OSC-2 cells [4]; 50 μM H2O2, 24 hour) was “had no effect on the SDH activity”. The “H2O2 concentration needed to cause […]% reduction of SDH activity” value (OSC-2 cells [4]; 24 hours) was 250 µM.
In the case of CC(=O)N[C@@H](CS)C(=O)O [NAC, N-acetyl-L-cysteine], the “effect of NAC on EGCG-induced cytotoxicity” value (OSC-2 and OSC-4 cells [2]; 10 mM NAC 2 hour pretreatment) is reported as “failed to rescue both cell lines from EGCG-induced cytotoxicity” and the “effect of NAC on H2O2 cytotoxicity” value (OSC-2 and OSC-4 cells [2]; 10 mM NAC 2 hour pretreatment, H2O2 250 and 500 μM) is reported as “significantly inhibited the cytotoxic effect of H2O2”.
CN(CCCC(=O)c1cccnc1)N=O [NNK, reference compound] was tested, and the “p57 expression, carcinogen alone” value (p57 (KIP2)) was “did not alter p57 expression”.
With C[C@@H]1C[C@@H]([C@H](O)CC2CC(=O)NC(=O)C2)C(=O)[C@@H](C)C1 [cycloheximide, reference compound] the “p57 protein levels with cycloheximide” value (p57 (KIP2); 30 μg/ml cycloheximide plus 50 μM EGCG) was “gradual decline in p57 protein levels”.
CN(C)C(=O)/N=N/C(=O)N(C)C [diamide, reference compound] was tested, and the “intracellular ROS levels vs endogenous” value (NHEK [5]) was “induced ROS” and the “ROS accumulated in OSC-2 cells relative to OSC-4 cells” value (OSC-2 cells [3]) was “doubled that in OSC-4 cells; also recorded: approximately two”.
catalase was tested, and the “effect of exogenous catalase on BrdU incorporation with EGCG” value (OSC-2 and OSC-4 cells [6]) was “had no effect on the rates of BrdU incorporation”, the “effect of exogenous catalase on EGCG-induced SDH reduction in OSC-4 cells” value (OSC-2 and OSC-4 cells [2]; 200 U/ml catalase, 200 μM EGCG) was “partially reversed the effects of 200 μM EGCG” and the “effect of exogenous catalase on EGCG-induced SDH reduction” value (OSC-2 and OSC-4 cells [2]; 200 U/ml catalase, 200 μM EGCG, 24 h) was “had no effect on this reduction”. The “effect of exogenous catalase on EGCG-induced caspase 3 activation” value (caspase-3) was “partially inhibited EGCG-induced caspase 3 activation”.
